Earlier results in patent US11596166B2 (priority 2017, dated 2023).

Tested on: pellagra patients
Conditions: in vivo

Question: Which results are given for `O=C(O)c1cccnc1` [nicotinic acid]?
Answer: acute mental symptoms: disappear rapidly, often over night; symptoms of pellagra: disappearance of many symptoms of the disease; time to blanching of acute erythematous dermal lesions with intact epithelium: ≤ 48 h; time to cessation of nausea and vomiting, normal bowel movements: 24 to 72 h; time to subsidence of redness and swelling of tongue, gums, mouth, throat, and vagina: 24 to 72 h
